Read-outs that look alike come from different tables or passages of the source.
Tests used:
[1] = Plasma stability test, rat plasma; conditions: for Remaining rate (%) 0 min / Remaining rate (%) 15 min / Remaining rate (%) 30 min / Remaining rate (%) 60 min / Remaining rate (%) 120 min: Rat plasma, 37°C; for half-life: rat, plasma
Excerpt: The purpose of this experiment was to detect the stability of the example compounds in plasma of mouse, rat, dog and human.
Liquid chromatography-mass spectrometer, centrifuge, vortexer, pipette, continuous dispenser, 96-well plate, 50% methanol aqueous solution, acetonitrile solution containing internal standard, blank matrix (plasma of rat, dog, or human), Propantheline (propantheline bromide), Mevinolin (lovastatin), and test compound.
After whole blood was collected from animals or humans, it was placed in a test tube containing an anticoagulant and centrifuged at 3500 rpm for 10 min to collect the upper pale yellow plasma.
The compound was weighed and the stock solution was formulated with DMSO and the working solution was formulated with 100 mM phosphate buffer.
2.36 mg of propantheline bromide was weighed and diluted with 1 mL of DMSO into a 10 mM stock solution; 10 µL of 10 mM stock solution was pipetted into 1 mL of 100 mM phosphate buffer to achieve a final concentration of 100 µM.
4.05 mg of lovastatin was weighed and diluted with 1 mL of DMSO into a 10 mM stock solution; 10 µL of 10 mM stock solution was pipetted into 1 mL of 100 mM phosphate buffer to achieve a final concentration of 100 µM.
• 1) In a 96-well plate, 285 µL of plasma and 15 µL of 10 µM compound (test compound) were added in sequence and incubated at 37°C. • 2) 40 µL was taken at 0, 15, 30, 60, 90, and 120 min (the sampling point can be fine-tuned) and 160 µL of acetonitrile stop solution containing internal standard was add. • 3) After centrifugation (3500 rpm, 10 min), 50 µL of supernatant was taken, and 50 µL of DDH2O added for dilution and then the obtained mixture was injected into LC-MS/MS.
• Instruments: Shimadzu LC-20 AD • Chromatographic column: Phenomenex Gemiu ® C18 (50*4.6 mm, 5 µm particle size); • mobile phase: A: Acetonitrile, B: 0.1% formic acid solution 0-8 min: 5% A→95% A, 2.0-2.1 min: 90%A→5% A; Flow rate: 0.8 mL/min; Run time: 5.0 min; Injection volume: 5 µL.
• Instrument: API4000 liquid chromatography-mass spectrometer, AB Company, USA; • the ion source was electrospray ionization source (ESI); • drying gas (N2) temperature was 500°C; • electrospray voltage was 5500V; • the detection method was positive ion detection; • the scanning method was selected reaction monitoring (MRM); • the scanning time was 0.1s.

[2] = Pharmacokinetic determination in mice (IV and PO, plasma, LCMS/MS); format: in vivo, Balb/c mice; conditions: for F: PO 30 mg/kg vs IV 1 mg/kg; for AUC(0-inf) / C0 / clearance / half-life / Cmax / Tmax: mouse, in vivo, plasma; for C0: read-out: C0; for clearance: read-out: CL; for half-life: read-out: T1/2 (converted); for Cmax: read-out: Cmax; for Tmax: read-out: Tmax
Method in brief: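 Male Balb/c mice, fasted overnight (n=3 per route): PO 30 mg/kg in 10% Captisol/50 mM citrate pH 5.0, or IV 1 mg/kg in 5% DMSO/10% Solutol HS15/85% PBS. Orbital blood sampled predose to 24 h; EDTA plasma analysed by LC-MS/MS.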

[3] = Balb/c mice, intravenously (IV), 1 mg/kg, read-out: AUCo-∞
[4] = Balb/c mice, intravenously (IV), 1 mg/kg
[5] = PO, 30 mg/kg, male Balb/c mice, overnight fasting, read-out: AUC0-∞
[6] = PO, 30 mg/kg, male Balb/c mice, overnight fasting

Structure (SMILES): C#Cc1c(F)ccc2cc(O)cc(-c3nc4c5c(nc(OCC6(CN7CCC(=C(F)F)CC7)CC6)nc5c3F)N3C[C@H]5CC[C@H](N5)[C@H]3CO4)c12 [Example 1-1, 4-((5aS,6S,9R)-12-((1-((4-(difluoromethylene)piperidin-1-yl)methyl)cyclopropyl)methoxy)-1-fluoro-5a,6,7,8,9,10-hexahydro-5H-4-oxa-3,10a,11,13,14-pentaaza-6,9-methylenenaphtho[1,8-ab]heptalene-2-yl)-5-ethynyl-6-fluoronaphthalen-2-ol]
- Remaining rate (%) 0 min [1]: 100.00%
- Remaining rate (%) 15 min [1]: 95.76%
- Remaining rate (%) 30 min [1]: 92.93%
- Remaining rate (%) 60 min [1]: 88.38%
- Remaining rate (%) 120 min [1]: 80.60%
- half-life [1]: 13.5 h
- F ([2]; male Balb/c mice): 12.1%
- AUC(0-inf) [2, 3]: 583 ng·h/mL
- C0 [2, 4]: 886 ng/mL
- clearance [2, 4]: 28.6 mL/min/kg
- half-life [2, 4]: 8.6 h
- AUC(0-inf) [2, 5]: 2110 ng·h/mL
- Cmax [2, 6]: 227 ng/mL
- half-life [2, 6]: 9.1 h
- Tmax [2, 6]: 0.5 h

Structure (SMILES): CON=C1CCN(CC2(COc3nc4c5c(nc(-c6cc(N)cc(Cl)c6C(F)(F)F)c(F)c5n3)O[C@@H](C)[C@@H]3[C@@H]5CC[C@H](CN43)N5)CC2)CC1 [Example 337, 1-((1-((((5S,5aS,6S,9R)-2-(5-amino-3-chloro-2-(trifluoromethyl)phenyl)-1-fluoro-5-methyl-5a,6,7,8,9,10-hexahydro-5H-4-oxa-3,10a,11,13,14-pentaaza-6,9-methylnaphtho[1,8-ab]heptene-12-yl)oxy)methyl)cyclopropyl)methyl)piperidin-4-one O-methyloxime]
- AUC(0-inf) [2, 5]: 632 ng·h/mL
- Cmax [2, 6]: 204 ng/mL
- half-life [2, 6]: 1.7 h
- Tmax [2, 6]: 1 h

Structure (SMILES): [2H]C([2H])([2H])[C@@H]1Oc2nc(-c3cc(O)cc4ccc(F)c(C#C)c34)c(F)c3nc(OCC4(CN5CCC(=CF)CC5)CC4)nc(c23)N2C[C@H]3CC[C@H](N3)[C@@H]12 [Example 164]
- Remaining rate (%) 0 min [1]: 100.00%
- Remaining rate (%) 15 min [1]: 97.07%
- Remaining rate (%) 30 min [1]: 93.36%
- Remaining rate (%) 60 min [1]: 97.21%
- Remaining rate (%) 120 min [1]: 95.03%
- half-life [1]: 91.6 h

Structure (SMILES): C#Cc1c(F)ccc2cc(O)cc(-c3nc4c5c(nc(OCC6(CN7CCC(=C(F)F)CC7)CC6)nc5c3F)N3C[C@H]5CC[C@H](N5)[C@H]3[C@H](C)O4)c12 [Example 19-1, 4-((5S,5aS,6S,9R)-12-((1-((4-(difluoromethylene)piperidin-1-yl)methyl)cyclopropyl)methoxy)-1-fluoro-5-methyl-5a,6,7,8,9,10-hexahydro-5H-4-oxa-3,10a,11,13,14-pentaaza-6,9-methylnaphtho[1,8-ab]hept-2-yl)-5-ethynyl-6-fluoronaphthalene-2-ol]
- Remaining rate (%) 0 min [1]: 100.00%
- Remaining rate (%) 15 min [1]: 96.27%
- Remaining rate (%) 30 min [1]: 91.39%
- Remaining rate (%) 60 min [1]: 95.69%
- Remaining rate (%) 120 min [1]: 94.09%
- half-life [1]: 86.3 h
- F ([2]; male Balb/c mice): 11.2%
- AUC(0-inf) [2, 3]: 476 ng·h/mL
- C0 [2, 4]: 904 ng/mL
- clearance [2, 4]: 35 mL/min/kg
- half-life [2, 4]: 11.2 h
- AUC(0-inf) [2, 5]: 1610 ng·h/mL
- Cmax [2, 6]: 316 ng/mL
- half-life [2, 6]: 7.2 h
- Tmax [2, 6]: 1 h

Reference: EP4635958A1, “PYRIMIDINE-CONTAINING POLYCYCLIC DERIVATIVE INHIBITOR, AND PREPARATION METHOD THEREFOR AND USE THEREOF” (Shanghai Hansoh Biomedical Co., Ltd., priority 2022, dated 2024)
